Results as given in publication PMC11726677, “Eradication of Therapy-Resistant Cancer Stem Cells by Novel Telmisartan Derivatives” (Journal of Medicinal Chemistry, 2024).
“And” between values parts separate entries of the source, which are not always exact repeats. Equal entries are not always repeated.

Tests used:
[1] = tested on: K562-R cells; experiment: Chemosensitizing: metabolic activity of K562-R cells cotreated with imatinib (modified MTT assay); format: cell-based, human; details: 72 h; for metabolic activity of K562-R cells, combination with imatinib: compound 10 μM + imatinib 1 μM; for chemosensitizing effect, concentration-dependent analysis: 0.5–8 μM (transporter inhibitors 10 to 0.5 μM)
Procedure: (§1) The potential reduction in cell viability was determined using the modified MTT assay.
conc. 10 to 0.5 μM) over 72 h (Figure 3D).
(§2) COS-7 (2 × 10^3 cells per well), IGROV-1 SP (2.5 × 10^3 cells per well), A2780 V SP (1.5 × 10^3 cells per well), PC3-DR (4 × 10^3 cells per well), and DU145-DR (3 × 10^3 cells per well) cells were seeded in 96-well plates in triplicates and after 24 h, the compounds were added at the respective concentrations. K562-R and K562 cells (2 × 10^4 cells per well), were treated with the compounds 2 h after seeding. […] A modified MTT colorimetric assay (EZ4U kit, Biomedica) was used to determine the metabolic activity of the tested cells, according to the manufacturer’s instructions. Absorbance was measured and the optical density of the respective FCS-containing medium and of the substrate was subtracted to exclude nonspecific staining. Metabolic activity in the absence of the compounds (CTR, DMSO) was set to 100% as reference.

[2] = tested on: K562 cells; experiment: Metabolic activity of TKI-sensitive K562 cells (MTT assay); format: cell-based, human; details: 10 μM, 72 h, alone
Procedure: Selectivity for therapy-resistant K562-R cells can be assessed by comparing the results with TKI-sensitive K562 cells.
as §2

[3] = tested on: K562-R cells; experiment: Metabolic activity of K562-R cells, compounds alone (modified MTT assay); format: cell-based, human; details: 72 h; for viability at 10 µM: Homo sapiens, K-562R, read-out: metabolic activity of K562-R cells, compound alone; for metabolic activity of K562-R cells, compound alone: 10 μM, without imatinib, vehicle control = 100%
Procedure: as §1
First, the compounds (10 μM) were applied alone to evaluate their effects per se.
as §2

[4] = tested on: ABCB1; experiment: Jess Simple Western immunoassay of ABCB1 expression in K562-R cells; format: cell-based, human; details: 4 μM, 72 h
Procedure: (§3) Protein extracts were prepared as previously described.[44] Protein expression was determined using the capillary-based Jess Simple Western detection system (ProteinSimple, BioTechne) according to the manufacturer’s instructions at default settings. […] Horseradish peroxidase (HRP)-conjugated secondary antirabbit antibody, which was included in the Jess Detection Module kit, was used. Data analysis was conducted using Compass for Simple Western 4.0 software (ProteinSimple, BioTechne).

[5] = target: ABCB1 transporter in K562-R cells (Homo sapiens, UniProt P08183); experiment: Side population (SP) analysis, DCV staining, flow cytometry; details: 10 μM
Procedure: SP analyses were performed as previously described[45] on a LSRFortessa flow cytometer (BD Biosciences, Vienna, Austria). Briefly, 1 × 10^6 cells/mL were stained with 10 μM Vybrant DyeCycleTM Violet (DCV; Molecular Probes, Eugene, OR) in the presence or absence of the investigated compounds for 90 min at 37 °C. […] Subsequently, the cells were washed and immediately analyzed using flow cytometry. The FlowJo 9.6 software was used for data analyses (Tree Star Software, Ashland, CA).

[6] = tested on: STAT5; experiment: Jess Simple Western immunoassay of STAT5/pSTAT5 in K562-R cells; format: cell-based, human
Procedure: In the next step, the effects of the compounds (4 μM) on STAT5 in K562-R cells were examined.
as §3

[7] = tested on: PC3-DR cells; experiment: Chemosensitizing to docetaxel: metabolic activity of PC3-DR cells (MTT); format: cell-based, human; details: DTX 12.5 nM, 72 h, compared to solvent control
Procedure: (§4) The chemosensitizing efficacy was investigated in the ovarian and prostate cancer cell lines using the above-described metabolic activity assay. Paclitaxel (PTX) served as a reference (CTR) in A2780 V SP and IGROV-1 SP cells and docetaxel (DTX) in PC3-DR and D145-DR cells.
as §2

[8] = tested on: DU145-DR cells; experiment: Chemosensitizing to docetaxel: metabolic activity of DU145-DR cells (MTT); format: cell-based, human; details: DTX 12.5 nM, 72 h, compared to solvent control
Procedure: as §4, §2

[9] = tested on: human CML K562-R xenograft; experiment: Efficacy in human CML K562-R xenograft model; format: in vivo, female NOD/SCID mice; set-up: % T/C (treatment/control) / % TGI (tumor growth inhibition): concentration or dose not given beside the values; details: for % TGI (tumor growth inhibition): vs vehicle control
Procedure: The animals were checked daily for humane end points. Body weight was measured and recorded daily after dosing.
The % T/C value, defined as the ratio of the mean tumor volume for the treated versus control group, was calculated as % T/C = (Tn/Cn) × 100%; whereas Tn: denotes mean tumor volume of the treated group on day n, and Cn: denotes mean tumor volume of the control group on day n. The optimal value is the minimal % T/C ratio, which reflects the maximal tumor growth inhibition achieved.
TGI (Tumor growth inhibition) was calculated by the following formula [drawing 1] [drawing 2]
Whereas: Tn: denotes the mean tumor volume of the treated group on day n; T1: denotes the mean tumor volume of the treated group on day 1; Cn: denotes the mean tumor volume of the vehicle control group on day n; and C1: denotes the mean tumor volume of the vehicle control group at day 1.

[10] = Body weight / tolerability in the K562-R xenograft study; details: 7c 10 mg/kg, imatinib 50 mg/kg, PO QD × 30 days
[11] = tested on: K562-R cells; experiment: Metabolic activity of K562-R cells, compounds alone (modified MTT assay); format: cell-based, human; details: imatinib 1 μM, 72 h; compared to the 100% solvent control
[12] = tested on: IGROV-1 SP cells; experiment: Chemosensitizing to paclitaxel: metabolic activity of IGROV-1 SP cells (MTT); format: cell-based, human; details: PTX 10 nM, 72 h, compared to solvent control
Procedure: as §4, §2

[13] = tested on: A2780 V SP cells; experiment: Chemosensitizing to paclitaxel: metabolic activity of A2780 V SP cells (MTT); format: cell-based, human
Procedure: as §4, §2

[14] = tested on: ABCB1; set-up: method as in Weiss et al. 38; details: ref Weiss et al. 38; cited from earlier work

ABCB1 transporter in K562-R cells, sequence (P08183 whole entry): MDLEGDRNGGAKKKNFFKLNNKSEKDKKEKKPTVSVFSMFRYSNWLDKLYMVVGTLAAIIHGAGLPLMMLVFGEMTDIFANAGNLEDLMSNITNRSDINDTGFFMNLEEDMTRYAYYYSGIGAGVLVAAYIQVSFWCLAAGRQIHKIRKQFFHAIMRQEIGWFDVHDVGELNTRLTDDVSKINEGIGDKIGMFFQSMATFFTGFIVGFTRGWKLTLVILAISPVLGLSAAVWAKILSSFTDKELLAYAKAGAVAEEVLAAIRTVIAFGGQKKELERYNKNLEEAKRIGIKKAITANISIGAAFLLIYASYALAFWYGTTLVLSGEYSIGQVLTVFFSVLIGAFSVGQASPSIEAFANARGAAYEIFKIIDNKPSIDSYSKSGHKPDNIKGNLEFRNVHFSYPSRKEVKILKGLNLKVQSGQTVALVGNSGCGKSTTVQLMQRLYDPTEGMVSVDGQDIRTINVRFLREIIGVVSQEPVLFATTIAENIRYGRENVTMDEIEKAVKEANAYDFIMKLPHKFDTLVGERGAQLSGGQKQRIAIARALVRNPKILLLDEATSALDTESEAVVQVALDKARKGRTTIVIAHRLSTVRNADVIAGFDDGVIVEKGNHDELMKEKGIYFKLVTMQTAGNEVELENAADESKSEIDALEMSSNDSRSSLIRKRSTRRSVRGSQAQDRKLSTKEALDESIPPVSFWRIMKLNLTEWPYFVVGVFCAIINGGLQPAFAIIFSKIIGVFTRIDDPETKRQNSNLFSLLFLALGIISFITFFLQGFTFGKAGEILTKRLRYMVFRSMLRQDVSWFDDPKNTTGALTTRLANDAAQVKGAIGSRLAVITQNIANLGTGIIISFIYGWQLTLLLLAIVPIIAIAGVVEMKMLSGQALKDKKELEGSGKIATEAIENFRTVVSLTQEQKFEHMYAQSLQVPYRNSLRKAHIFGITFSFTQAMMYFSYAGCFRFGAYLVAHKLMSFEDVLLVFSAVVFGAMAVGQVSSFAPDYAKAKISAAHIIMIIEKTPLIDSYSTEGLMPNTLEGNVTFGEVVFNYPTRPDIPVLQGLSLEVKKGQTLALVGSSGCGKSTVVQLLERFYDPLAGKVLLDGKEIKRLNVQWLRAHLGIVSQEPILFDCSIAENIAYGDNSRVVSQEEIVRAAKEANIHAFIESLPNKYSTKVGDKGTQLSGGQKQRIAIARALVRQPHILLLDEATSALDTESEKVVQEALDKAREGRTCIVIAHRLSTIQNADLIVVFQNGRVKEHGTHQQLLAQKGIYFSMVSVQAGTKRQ

Q: For `CCCc1nc2ccccc2n1Cc1ccc(-c2cccc(C(=O)OC)c2)cc1` [5b, Methyl 4′-((2-propyl-1H-benzo[d]imidazole-1-yl)methyl)-[1,1′-biphenyl]-3-carboxylate], which “metabolic activity of K562-R cells, combination with imatinib” value [1] is on record?
A: Its value is 34–58%.

Q: And the “metabolic activity of K562 cells” value [2]?
A: The value was at least 65%.

Q: What about the viability at 10 µM [3] of the same compound?
A: The viability at 10 µM was under 70%.

Q: Which results are given for `CCCc1nc2ccccc2n1Cc1ccc(-c2ccc(C(=O)OC)cc2)cc1` [6b, Methyl 4′-((2-propyl-1H-benzo[d]imidazole-1-yl)methyl)-[1,1′-biphenyl]-4-carboxylate]?
A: ABCB1 protein expression [4]: none of the compounds abrogated the ABCB1 protein expression; EC50 ([1]; K562-R, + imatinib 1 μM, read-out: SC50 (drug concentration eliciting 50% of the maximum sensitizing effect)): 1180 nM; metabolic activity of K562-R cells, combination with imatinib [1]: 8–24%; metabolic activity of K562 cells [2]: ≥ 65%; effect on SP phenotype / ABCB1 activity [5]: efficiently reduced the ABCB1 activity; relation of SP and NSP [5]: about 50%; phosphorylation of STAT5 ([6]; 4 μM + imatinib 1 μM, 6 h): marked repression of the STAT5 phosphorylation; viability at 10 µM [3]: 75 to 80%

Q: For `CC(=O)O[C@@]12CO[C@@H]1C[C@H](O)[C@@]1(C)C(=O)[C@H](O)C3=C(C)[C@@H](OC(=O)[C@H](O)[C@@H](NC(=O)OC(C)(C)C)c4ccccc4)C[C@@](O)([C@@H](OC(=O)c4ccccc4)[C@H]21)C3(C)C` [DTX, docetaxel, reference compound], which “metabolic activity of treated cells, DTX alone” value [7] is on record?
A: The value was over 80%.

Q: What about the “metabolic activity of treated cells, DTX alone” value [8] of the same compound?
A: Its value is over 80%.

Q: What does the source list for `Cc1ccc(NC(=O)c2ccc(CN3CCN(C)CC3)cc2)cc1Nc1nccc(-c2cccnc2)n1` [Imatinib, imatinib, reference compound]?
A: % TGI (tumor growth inhibition) ([9]; Day 5): 76%; % TGI (tumor growth inhibition) ([9]; Day 8): 54%; % TGI (tumor growth inhibition) ([9]; Day 12): 50%; % TGI (tumor growth inhibition) ([9]; Day 15): 66%; % TGI (tumor growth inhibition) ([9]; Day 19): 57%; % TGI (tumor growth inhibition) ([9]; Day 22): 57%; % TGI (tumor growth inhibition) ([9]; Day 26): 56%; % TGI (tumor growth inhibition) ([9]; Day 29): 55%; % TGI (tumor growth inhibition) ([9]; Day 33): 59%; Tumor Weight, individual animal ([9]; harvested on day 33, animals No. 1–7): 4.442 g and 0.194 g and 0.080 g and 0.082 g and 0.351 g and 3.076 g and 0.081 g; Tumor Weight, group mean ([9]; harvested on day 33, n = 7): 1.200 g; tolerability [10]: well tolerated; metabolic activity of K562-R cells, imatinib alone [11]: 73%

Q: With `CC(=O)O[C@H]1C(=O)[C@@]2(C)[C@H]([C@H](OC(=O)c3ccccc3)[C@]3(O)C[C@H](OC(=O)[C@H](O)[C@@H](NC(=O)c4ccccc4)c4ccccc4)C(C)=C1C3(C)C)[C@]1(OC(C)=O)CO[C@@H]1C[C@@H]2O` [PTX, paclitaxel] as the compound, how does the “metabolic activity of treated cells, PTX alone” value [12] read?
A: The value was over 80%.

Q: And the IC50 ([13]; Homo sapiens, PTX 0–300 nM, read-out: IC50 (PTX), PTX alone)?
A: The IC50 was 168 nM.

Q: What about the “metabolic activity of treated cells, PTX alone” value ([13]; PTX 10 nM, 72 h, compared to solvent control) of the same compound?
A: The value was over 80%.

Q: With `COc1cc2c(cc1OC)CN(CCc1ccc(NC(=O)c3cccc4c(=O)c5cccc(OC)c5[nH]c34)cc1)CC2` [elacridar, reference compound] as the compound, how does the ABCB1 protein expression [4] read?
A: The ABCB1 protein expression was “none of the compounds abrogated the ABCB1 protein expression”.

Q: What about the “chemosensitizing effect, concentration-dependent analysis” value ([1]; K562-R, + imatinib 1 μM) of the same compound?
A: Its value is “comparable to telmi-ester (7b)”.

Q: What about the “metabolic activity of K562 cells” value [2] of the same compound?
A: Its value is “did not affect the viability”.

Q: And the “phosphorylation of STAT5” value ([6]; 4 μM + imatinib 1 μM, 6 h)?
A: Its value is “hardly triggered any change in the expression of pSTAT5”.

Q: And the “phosphorylation of STAT5” value ([6]; 4 μM alone, 72 h)?
A: Its value is “did not influence the phosphorylation of STAT5”.

Q: What about the “metabolic activity of K562-R cells, compound alone” value [3] of the same compound?
A: Its value is “did not affect the viability”.

Q: For `CCCCC1=NC2(CCCC2)C(=O)N1Cc1ccc(-c2ccccc2-c2nnn[nH]2)cc1` [irbesartan], which “inhibition of ABCB1” value [14] is on record?
A: The value was “only slightly”.

Q: Which “chemosensitizing effect, concentration-dependent analysis” value ([1]; K562-R, + imatinib 1 μM) does the source give for `C/C=C/C[C@@H](C)C(=O)[C@H]1C(=O)N[C@@H](C(C)C)C(=O)N(C)CC(=O)N(C)[C@@H](CC(C)C)C(=O)N[C@@H](C(C)C)C(=O)N(C)[C@@H](CC(C)C)C(=O)N[C@@H](C)C(=O)N[C@H](C)C(=O)N(C)[C@@H](CC(C)C)C(=O)N(C)[C@@H](CC(C)C)C(=O)N(C)[C@@H](C(C)C)C(=O)N1C` [valspodar, reference compound] here?
A: The value was “sensitized the cells similarly to the derivatives 4b, 5c, 6b, 6c”.

Q: What about the “metabolic activity of K562 cells” value [2] of the same compound?
A: Its value is “did not affect the viability”.

Q: And the “metabolic activity of K562-R cells, compound alone” value [3]?
A: Its value is “did not affect the viability”.
